Test results published in ChEMBL document CHEMBL2146389, “Possible conformation of amphotericin B dimer in membrane-bound assembly as deduced from solid-state NMR” (Bioorg Med Chem, 2012).

How the values were obtained:
[1] = Hemolytic activity against human erythrocytes after 18 hrs by spectrophotometry; format: ADME, cell-based; details: Erythrocyte
[2] = tested on: Aspergillus niger; experiment: Antifungal activity against Aspergillus niger assessed as minimum compound concentration per disc required for inhibition zone formation after 50 hrs by disc diffusion assay; format: functional
[3] = Binding affinity to ergosterol-containing palmitoyloleoylphosphatidylcholine membrane by UV spectra analysis; format: physicochemical
[4] = Ratio of amphotericin B EC50 to compound EC50 for human erythrocytes; format: ADME, cell-based, Erythrocyte; details: read-out: Ratio EC50
[5] = Binding affinity to ergosterol-containing palmitoyloleoylphosphatidylcholine membrane at 1.67 uM by UV spectra analysis; format: physicochemical
[6] = Binding affinity to ergosterol-containing palmitoyloleoylphosphatidylcholine membrane at 0.84 uM by UV spectra analysis; format: physicochemical

Structure (SMILES) | EC50 [1] | Activity [2] | other results
C[C@@H]1[C@H](O)[C@@H](C)/C=C/C=C/C=C/C=C/C=C/C=C/C=C/[C@H](O[C@@H]2O[C@H](C)[C@@H](O)[C@H](N)[C@@H]2O)C[C@@H]2O[C@](O)(C[C@@H](O)C[C@@H](O)[C@H](O)CC[C@@H](O)C[C@@H](O)CC(=O)O[C@H]1C)C[C@H](O)[C@H]2C(=O)O [AMPHOTERICIN B] | 2 µM | 10 µg | Activity [3]: Active
C[C@@H]1[C@H](O)[C@@H](C)/C=C/C=C/C=C/C=C/C=C/C=C/C=C/[C@H](O[C@@H]2O[C@H](C)[C@@H](O)[C@H](NCCCNC(=O)CNC(=O)[C@@H]3[C@@H](O)[C@H](F)[C@@]4(O)C[C@@H](O)C[C@@H](O)[C@H](O)CC[C@@H](O)C[C@@H](O)CC(=O)O[C@@H](C)[C@H](C)[C@H](O)[C@@H](C)/C=C/C=C/C=C/C=C/C=C/C=C/C=C/[C@H](O[C@@H]5O[C@H](C)[C@@H](O)[C@H](N)[C@@H]5O)C[C@@H]3O4)[C@@H]2O)C[C@@H]2O[C@](O)(C[C@@H](O)C[C@@H](O)[C@H](O)CC[C@@H](O)C[C@@H](O)CC(=O)O[C@H]1C)C[C@H](O)[C@H]2C(=O)O[13CH3] | 13 µM | 50 µg | selectivity ratio [4]: 6
COC(=O)[C@H]1[C@@H]2C[C@@H](O[C@@H]3O[C@H](C)[C@@H](O)[C@H](N)[C@@H]3O)/C=C/C=C/C=C/C=C/C=C/C=C/C=C/[C@H](C)[C@@H](O)[C@@H](C)[C@H](C)OC(=O)C[C@H](O)C[C@H](O)CC[C@@H](O)[C@H](O)C[C@H](O)C[C@](O)(C[C@@H]1O)O2 [AMPHOTERICIN B ME ESTER] |  |  | Activity [5]: Active
COC(=O)[C@H]1[C@@H]2C[C@@H](O[C@@H]3O[C@H](C)[C@@H](O)[C@H](NCCCNC(=O)CNC(=O)[C@H]4[C@@H]5C[C@@H](O[C@@H]6O[C@H](C)[C@@H](O)[C@H](N)[C@@H]6O)/C=C/C=C/C=C/C=C/C=C/C=C/C=C/[C@H](C)[C@@H](O)[C@@H](C)[C@H](C)OC(=O)C[C@H](O)C[C@H](O)CC[C@@H](O)[C@H](O)C[C@H](O)C[C@](O)(C[C@@H]4O)O5)[C@@H]3O)/C=C/C=C/C=C/C=C/C=C/C=C/C=C/[C@H](C)[C@@H](O)[C@@H](C)[C@H](C)OC(=O)C[C@H](O)C[C@H](O)CC[C@@H](O)[C@H](O)C[C@H](O)C[C@](O)(C[C@@H]1O)O2 |  |  | Activity [6]: Active
